Source: patent US8507555B2, “Non-toxic anti-cancer drug combining ascorbate, magnesium and a naphthoquinone” (Summa Health System, priority 2006, dated 2013)
Where two headings read alike, the source gives them in different places.

Legend:
[1] = system: DU145 Prostate Cancer Cells; test: MTT cytotoxicity assay, DU145 prostate cancer cells; type: cell-based, human; conditions: read-out: CD50, vitamin alone
Protocol: (§1) The effect of the new Mg-containing formulation, which combined MgVC2+VK3, on proliferation and survival of cancer cells was evaluated was then evaluated using the MTT assay, a […] assay that measures the number of viable cells in a cell sample. 3-[4,5-dimethylthiazol-2-yl]-2,5-diphenyltetrazolium bromide (MTT) is a chromogen that is converted to a measurable colored product by viable cells. Therefore, the amount of color measured is proportional to the number of viable cells. This assay has been used widely to assess the cytotoxicity and selectivity of anti-cancer drugs because MTT is suitable for rapid toxicity characterization of new drug candidates and formulations. One way of assigning a cytotoxic activity to an agent is by converting the raw date to a CD50 value, which represent the amount (dose) of the agent needed to achieve 50% of the maximal cytotoxic activity. A lower CD50 indicates a greater cytotoxic activity (as a lower amount of the agent is needed to achieve a fixed level of cytotoxicity). Two agents can be compared by examining the fold-increase or decrease in their CD50 values.
(§2) To evaluate the antitumor activity at a MgVC2:VK3 ratio of […], MgVC was combined with VK3 at a MgVC2:VK3 ratio of 100:1 (which is effectively a VC:VK3 ratio of 200:1). The NaVC:K3 formulation was prepared at a ratio of 200:1.
The antitumor activity of the two formulations against a human androgen-independent prostate cancer cell line DU145 was evaluated in the MTT assay.

[2] = system: HS68 Fibroblasts; test: MTT cytotoxicity assay, HS68 fibroblasts; type: cell-based; conditions: read-out: CD50, vitamin alone
Protocol: as §1, §2
This indicates a selectivity for tumor vs. “normal” cells.

[3] = system: DNase I; conditions: tumor cells; cited from earlier work
[4] = Homo sapiens, DU-145, 24 h, 1 day
[5] = Homo sapiens, DU-145, 48 h, 2 days
[6] = Homo sapiens, DU-145, 72 h, 3 days

O=C1O[C@H]([C@@H](O)CO)C(O)=C1O [NaVC, sodium ascorbate]
IC50 [1, 4]: 3070 µM | IC50 [1, 5]: 1480 µM | IC50 [1, 6]: 994 µM | IC50 ([2]; Homo sapiens, 24 h, 1 day): 1470 µM | IC50 ([2]; Homo sapiens, 48 h, 2 days): 1240 µM | IC50 ([2]; Homo sapiens, 72 h, 3 days): 1180 µM

CC1=CC(=O)c2ccccc2C1=O [VK3, 2-methyl-1,4-naphthoquinone]
IC50 [1, 4]: 37.5 µM | IC50 [1, 5]: 37.5 µM | IC50 [1, 6]: 37.5 µM | IC50 ([2]; Homo sapiens, 24 h, 1 day): 18.7 µM | IC50 ([2]; Homo sapiens, 48 h, 2 days): 19 µM | IC50 ([2]; Homo sapiens, 72 h, 3 days): 18.7 µM | time of exposure to re-expression of latent DNase I activity [3]: ≤ 15 min

magnesium ascorbate [MgVC2]
IC50 ([1]; 1 day): 2510 µM | IC50 ([1]; 2 days): 1150 µM | IC50 ([1]; 3 days): 432 µM | IC50 ([2]; 1 day): 1660 µM | IC50 ([2]; 2 days): 1750 µM | IC50 ([2]; 3 days): 1500 µM
